# Assay results published in paper PMC6155721, “Hair Growth Promoting and Anticancer Effects of p21-activated kinase 1 (PAK1) Inhibitors Isolated from Different Parts of Alpinia zerumbet” (Molecules : A Journal of Synthetic Chemistry and Natural …, 2017).
# Values joined by “and” are separate entries in the source; they are usually repeats but may differ in a detail not shown here. Equal entries are not always repeated. Where two headings read alike, the source gives them in different places.
# Tests used:
# A549 lung cancer cells = test: Anticancer activity by MTT assay; format: cell-based; settings: mean ± SE of six replications, read-out: IC50 (μM), anti-cancer activity against the A549 cell line
# Method: The assay was performed as previously described. Lung cancer cells (A549) were seeded into a 96-well plate at a density of 1 × 10^4 cells/well, and cultured for 24 h before the compounds were added. The cells were incubated in a humidified atmosphere of 5% CO2 at 37 °C for 72 h. After treatment, 20 μL MTT solution (0.5 mg/mL) was added to each well, and the plates were incubated for 3 h. The medium was removed, and the formazan was dissolved in 200 μL of DMSO. After shaking the plate for 10 min, cell viability was assessed by measuring the absorbance at 490 nm using a microplate reader (Corona, Hitachinaka-ku, Ibaraki, Japan). DMSO was used as a blank. The corrected absorbance of sample was divided by the corrected absorbance of the control, and then multiplied by 100% to give the percentage cell viability.
# [1] = tested on: human follicle dermal papilla cells (HFDPC); test: Human follicle dermal papilla cell (HFDPC) proliferation, MTT assay; format: cell-based; settings: for proliferation of HFDPC / Cell viability (%) / viability at 10 µM / viability at 50 µM / viability at 100 µM: four days incubation; for viability at 10 µM / viability at 50 µM / viability at 100 µM: Homo sapiens, 96 h
# Method: Human follicle dermal papilla cell (HFDPC) (TOYOBO, Tokyo, Japan) proliferation was assayed as described by Nguyen et al.. Cells were cultured in growth medium containing 50 mL papilla cell growth medium (PCGM), 0.5 mL FCS, 0.5 mL BPE, 0.25 mL Cyp, and 0.25 mL ITT (51.5 mL total volume). Cell viability was evaluated using the thiazolyl blue tetrazolium bromide (MTT) assay. Cells were collected and diluted in medium containing D-MEM and 10% FBS at a cell density of 1 × 10^4 cells/mL. Then, cell suspension (200 μL) was transferred into a collagen-coated 96-well plate at a density of 2000 cells/well. After incubation for three days, 200 μL of the isolated compounds in DMEM was added. After four days of incubation, 100 μL of MTT solution in D-MEM (0.4 mg/mL) was added, and the mixture was incubated for 2 h. The untransformed MTT was removed, and 100 μL of 2-propanol was added to each well to dissolve the formazan crystals. The absorbance was read at 570 nm and 650 nm using a microplate reader. The cell viability was calculated from the readings, and represented as a percentage of the control value (cells treated with D-MEM only).
# human PAK1 = human PAK1 (Homo sapiens, UniProt Q13153); test: In vitro PAK1 inhibition, ADP-Glo kinase assay; format: biochemical; settings: mean ± SE of six replications, read-out: IC50 (μM), in vitro PAK1 inhibitory activity
# Chain of human PAK1 (Q13153 whole entry): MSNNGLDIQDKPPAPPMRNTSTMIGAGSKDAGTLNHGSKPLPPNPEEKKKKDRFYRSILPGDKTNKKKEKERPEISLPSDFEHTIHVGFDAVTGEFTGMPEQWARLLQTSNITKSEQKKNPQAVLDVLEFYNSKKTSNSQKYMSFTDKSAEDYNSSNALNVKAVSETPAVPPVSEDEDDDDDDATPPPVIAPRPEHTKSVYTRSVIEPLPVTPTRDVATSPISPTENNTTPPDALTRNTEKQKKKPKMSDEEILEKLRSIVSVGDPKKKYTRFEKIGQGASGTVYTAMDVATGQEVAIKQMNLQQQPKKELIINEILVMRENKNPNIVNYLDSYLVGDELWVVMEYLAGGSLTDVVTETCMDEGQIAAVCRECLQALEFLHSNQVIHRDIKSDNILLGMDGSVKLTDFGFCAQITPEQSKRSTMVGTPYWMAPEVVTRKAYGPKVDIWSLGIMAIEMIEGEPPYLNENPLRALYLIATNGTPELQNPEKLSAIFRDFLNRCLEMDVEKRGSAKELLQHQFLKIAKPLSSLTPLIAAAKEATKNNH
# Method: PAK1 kinase activity was measured using the ADP-Glo™ kinase assay kit (Promega, Madison, WI, USA) according to manufacturer’s instructions. Briefly, human PAK1 (25 ng/reaction) was incubated with test compounds (5 μL) for 10 min. […] The reaction was terminated by adding 25 μL ADP-Glo™ reagent, followed by an incubation time of 40 min. The kinase detection reagent (50 μL) was added to the reaction mixture, and after 30 min of incubation, the luminescence was recorded by MTP-880Lab microplate reader (Corona, Ibaraki, Japan) with an integration time of 0.5 s per well. The percentage inhibition was calculated relative to the control kinase activity without any inhibitor.
# [2] = 100 μM, percentage of control value
# [3] = 10 μM, percentage of control value (cells treated with D-MEM only)
Structure (SMILES),IC50 (A549 lung cancer cells; 72 h) [µM],"IC50 (A549 lung cancer cells; Homo sapiens, A549, 72 h) [µM]","proliferation of HFDPC / Cell viability (%) [1, 2] [%]","viability at 10 µM [1, 3] [%]",viability at 50 µM ([1]; percentage of control value) [%],"viability at 100 µM [1, 2] [%]",IC50 (human PAK1),"proliferation of HFDPC / Cell viability (%) [1, 3]",effect on hair cell proliferation ([1]; at around 50 μM or higher),"IC50 (A549 lung cancer cells; Homo sapiens, 72 h) [µM]"
"COc1cc(/C=C/C(=O)CC(=O)/C=C/c2ccc(O)c(OC)c2)ccc1O [Curcumin, reference compound]",30.3 ± 2.9,30,,,,,,,,
"O=C(O)C1OC(Oc2c(-c3ccc(O)cc3)oc3cc(O)cc(O)c3c2=O)C(O)C(O)C1O [KOG, kaempferol-3-O-β-D-glucuronide]",,81.4 ± 1.9,~180,118,158,181,39 µM and 39.3 µM,,,
"C=C1CCC2C(C)(C)CCCC2(C)C1C/C=C(/C=O)CC=O (centres unmarked) [Labdadiene, 8(17),12-Labdadiene-15,16-dial]",67.1 ± 6,67,~226,133,197,227,52 µM and 52.1 µM,about 132%,,
CO/C=C/C=C/C=C/C1C=CC(/C=C/C=C/C=C/OC)O1 (centres unmarked) [MTD],,98.9 ± 9.3,,165,190,113,59 µM and 58.6 µM,,,
"Nc1cc(N2CCCCC2)nc(N)[n+]1[O-] [Minoxidil, reference compound]",,,,116,,,,119%,,
"C=C1CC2CC(C)(C)C(C)(C)CN2CC1CCCCC/C=C/C (centres unmarked) [TMOQ, (E)-2,2,3,3-tetramethyl-8-methylene-7-(oct-6-en-1-yl)octahydro-1H-quinolizine]",,,,139,104,68.5,49 µM and ~50 µM and 49.3 µM,,did not significantly affect the hair cell proliferation,90.8 ± 1.6
